Like-named read-outs stand apart in the source and are kept apart here. Some results are limits rather than exact numbers.

Data set [1] addresses T1, Recombinant rhinovirus 3C protease, serotype 14 (Human rhinovirus 14, UniProt P03303).
T1 construct: Recombinant rhinovirus 3C proteases; made in house
The data set is described as follows: Inhibition of rhinovirus 3C protease (FRET assay, kobs/[I]), serotype 14. The class given is biochemical. The conditions noted are these: HRV-14; for kinact/KI: pH 7.6, read-out: kobs/[I] (3C protease inhibition activity). How it is done:
Inhibition of Rhinovirus 3C Protease:
Stock solutions (50 mM, in DMSO) of various compounds were prepared; dilutions were in the same solvent. Recombinant rhinovirus 3C proteases (see Birch et al., “Purification of recombinant human rhinovirus 14 3C protease expressed in Escherichia coli,” Protein Expr. Pur. (1995), vol. 6(5), 609-618) from serotypes 14, 16, and 2 were prepared by the following standard chromatographic procedures: (1) ion exchange using Q Sepharose Fast Flow from Pharmacia; (2) affinity chromatography using Affi-Gel Blue from Biorad; and (3) sizing using Sephadex G-100 from Pharmacia. Each assay sample contained 2% DMSO, 50 mM tris pH 7.6, 1 mM EDTA, a test compound at the indicated concentration, approximately 1 μM substrate, and 50-100 nM protease. The kobs/I values were obtained from reactions initiated by addition of enzyme rather than substrate. RVP activity was measured in the fluorescence resonance energy transfer assay. The substrate was (N-terminal) DABCYL-([…]-EDANS. In the uncleaved peptide, the EDANS fluorescence was quenched by the proximal DABCYL moiety. When the peptide was cleaved, the quenching was relieved, and activity was measured as an increase in fluorescence signal. The tabulated data in the column designated kobs/[I] were measured from progress curves in enzyme start experiments.

The subject of data set [2] is HRV-14. The data set is described as follows: Antirhinoviral H1-HeLa cell culture assay (XTT cell protection, EC50), HRV-14. The format is cell-based, human rhinovirus (HRV) serotype-14 in H1-HeLa cells. The protocol: (§1) Antirhinoviral H1-HeLa Cell Culture Assay:
(§2) In this cell protection assay, the ability of compounds to protect cells against HRV infection was measured by the XTT dye reduction method, which is described in Weislow et al., J. Natl. Cancer Inst. […] H1-HeLa cells were infected with HRV-14 at a multiplicity of infection (m.o.i.) of 0.13 (virus particles/cell) or mock-infected with medium only. Infected or mock-infected cells were resuspended at 8×10^5 cells per mL, and incubated with appropriate concentrations of the compounds to be tested. Two days later, XTT/PMS was added to test plates and the amount of formazan produced was quantified spectrophotometrically at 450/650 nm. […] The therapeutic index (TI) was calculated by dividing the CC50 value by the EC50 value.
(§3) All strains of human rhinovirus (HRV) for use in this assay were purchased from American Type Culture Collection (ATCC), except for HRV serotype-14 (produced from the infectious cDNA clone constructed by Dr. Robert Rueckert, Institute for Molecular Virology, University of Wisconsin, Madison, Wis.). HRV stocks were propagated and viral assays were performed in H1-HeLa cells (ATCC). Cells were grown in minimal essential medium with 10% fetal bovine serum, available from Life Technologies (Gaithersburg, Md.).
(Tetrazolium dyes change colour on reduction, which living cells bring about.)

Data set [3] in a line: Cytotoxicity (CC50) in mock-infected H1-HeLa cells, XTT dye reduction. The conditions noted are these: human, H1-HeLa cells, mock-infected; line of HRV-14. The class given is cell-based, human. The protocol:
as §2, §3
(§4) Coxsackievirus types A-21 (CAV-21) and B3 (CVB3) were purchased from American Type Culture Collection (ATCC, Rockville, Md.). Virus stocks were propagated and antiviral assays were performed in H1-HeLa cells (ATCC). Cells were grown in minimal essential medium with 10% fetal bovine serum (Life Technologies, Gaithersburg, Md.). The ability of the compounds of this invention to protect cells against either CAV-21 or CVB3 infection was measured by the XTT dye reduction method. This method is described in Weislow et al., J. Natl. Cancer Inst. […] H1-HeLa cells were infected with CAV-21 or CVB3 at a multiplicity of infection (m.o.i.) of 0.025 or 0.075, respectively, or mock-infected with medium only. H1-HeLa cells were plated at 4×10^4 cells per well in a 96-well plate and incubated with appropriate concentrations of the test compound. One day (CVB3) or two days (CAV-21) later, XTT/PMS was added to test plates and the amount of formazan produced was quantified spectrophotometrically at 450/650 nm. […] The therapeutic index (TI) was calculated by dividing the CC50 by the EC50.

Data set [4] concerns H1-HeLa cells. The data set is described as above. The class given is cell-based, human. How it is done:
as §2, §3, §4

For data set [5], the system named is strains of human rhinovirus (HRV). The data set can be described thus: Antirhinoviral H1-HeLa cell culture assay (XTT cell protection, EC50), other HRV strains. The format is cell-based, human rhinovirus in H1-HeLa cells. The conditions noted are these: read-out: EC50. How it is done: as §1
In this cell protection assay, the ability of compounds to protect cells against HRV infection was measured by the XTT dye reduction method, which is described in Weislow et al., J. Natl. Cancer Inst. (1989), vol. 81, 577-586. H1-HeLa cells were infected with HRV-14 at a multiplicity of infection (m.o.i.) of 0.13 (virus particles/cell) or mock-infected with medium only. Infected or mock-infected cells were resuspended at 8×10^5 cells per mL, and incubated with appropriate concentrations of the compounds to be tested. Two days later, XTT/PMS was added to test plates and the amount of formazan produced was quantified spectrophotometrically at 450/650 nm. […] The therapeutic index (TI) was calculated by dividing the CC50 value by the EC50 value.
as §3

Where [6] appears, read: Rhinovirus B, HRV14, H1-HeLa, HRV-14, read-out: EC50.

T1 sequence (P03303 1538-1719): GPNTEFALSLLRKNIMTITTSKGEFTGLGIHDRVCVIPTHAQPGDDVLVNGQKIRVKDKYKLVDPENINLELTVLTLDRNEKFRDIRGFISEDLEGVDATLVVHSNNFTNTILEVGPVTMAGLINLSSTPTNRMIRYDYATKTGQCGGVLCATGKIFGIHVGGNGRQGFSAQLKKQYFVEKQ

With `O=C1OCC/C1=C\[C@H](C[C@@H]1CCNC1=O)NC(=O)[C@H](Cc1ccc(F)cc1)n1cccc(NC(=O)c2cc(Cl)on2)c1=O` [Compound 23, trans-(2″S,2″S,3″″″S)-5-Chloroisoxazole-3-carboxylic Acid (1′-{2″-(4′″-fluorophenyl)-1″-[2″″-(2′″″-oxodihydrofuran-3′″″-ylidene)-1″″-(2″″″-oxopyrrolidin-3″″″-ylmethyl)ethylcarbamoyl]ethyl}-2′-oxo-1′,2′′-dihydropyridin-3′-yl)amide], the kinact/KI in data set [1] worked out at 385000 M⁻¹ s⁻¹. Also, in data set [2] (setting [6]), the concentration for a half-maximal effect (EC50) stood at 64 nM. In data set [3], this compound returned a CC50 at 2 days of more than 10000 nM.

For `CCOC(=O)/C=C/[C@H](CCC(N)=O)NC(=O)[C@H](Cc1ccccc1)n1ccc(C)c(NC(=O)OCc2ccccc2)c1=O` [Compound 12, trans-(2′S,4S)-4-[2′-(3″-Benzyloxycarbonylamino-4″-methyl-2″-oxo-2″H-pyridin-1″-yl)-3′-phenylpropionylamino]-6-carbamoylhex-2-enoic Acid Ethyl Ester], in data set [1], the kinact/KI stood at 25800 M⁻¹ s⁻¹. The EC50 in data set [2] (setting [6]) turned out to be 75 nM. In addition, the CC50 at 2 days in data set [3] is more than 10000 nM.

Consider `CCOC(=O)/C=C/[C@H](CCC(N)=O)NC(=O)[C@H](Cc1ccccc1)n1cccc(NC(=O)c2cc(Cl)on2)c1=O` [Compound 30, trans-(2′S,4S)-6-Carbamoyl-4-(2′-{3″-[(5′″-chloroisoxazole-3′″-carbonyl)amino]-2″-oxo-2″H-pyridin-1″-yl}-3′-phenylpropionylamino)hex-2-enoic Acid Ethyl Ester], for which the kinact/KI in data set [1] turned out to be 134000 M⁻¹ s⁻¹. Besides, the EC50 in data set [2] (setting [6]) amounted to 24 nM. In data set [3], this compound yielded a cytotoxic concentration (CC50) at 2 days of more than 10000 nM.

For the compound `CCOC(=O)/C=C/[C@H](CCC(N)=O)NC(=O)[C@H](Cc1ccc(F)cc1)n1cccc(NC(=O)OCc2ccccc2)c1=O` [Compound 7, trans-(2′S,4S)-4-[2′-(3″-Benzyloxycarbonylamino-2″-oxo-2″H-pyridin-1″-yl)-3′-(4′″-fluorophenyl)propionylamino]-6-carbamoylhex-2-enoic Acid Ethyl Ester], the kinact/KI in data set [1] amounted to 81000 M⁻¹ s⁻¹. Further, the EC50 in data set [2] (setting [6]) amounted to 14 nM. The compound further returned a 50% cytotoxic concentration (CC50) at 2 days in data set [3] of more than 10000 nM.

Take `CCOC(=O)/C=C/[C@H](CCC(N)=O)NC(=O)Cn1cccc(NC(=O)OCc2ccccc2)c1=O` [Compound 17, trans-(4S)-4-[2′-(3″-Benzyloxycarbonylamino-2″-oxo-2″H-pyridin-1″-yl)acetylamino]-6-carbamoylhex-2-enoic Acid Ethyl Ester]: the kinact/KI in data set [1] is 348 M⁻¹ s⁻¹. Further, the EC50 in data set [2] (setting [6]) is more than 10000 nM. Moreover, in data set [3], the half-maximal cytotoxic concentration (CC50) at 2 days was more than 10000 nM.

In the case of `Cc1cc(C(=O)Nc2cccn([C@@H](Cc3ccc(F)cc3)C(=O)N[C@H](/C=C3\CCOC3=O)C[C@@H]3CCNC3=O)c2=O)no1` [Compound 20, trans-(2″S,2″″S,3″″″S)-5-Methylisoxazole-3-carboxylic Acid (1′-{2″-(4′″-fluorophenyl)-1″-[2″″-(2′″″-oxodihydrofuran-3′″″-ylidene)-1″″-(2″″″oxopyrrolidin-3″″″-ylmethyl)ethylcarbamoyl]ethyl}-2′-oxo-1′,2′-dihydropyridin-3′-yl)amide], the kinact/KI in data set [1] was determined as 600000 M⁻¹ s⁻¹. Moreover, the concentration giving a half-maximal response (EC50) in data set [2] (setting [6]) was 15 nM. In data set [3], the CC50 at 2 days is more than 10000 nM.

Turning to `C#CC[C@@H](C(=O)N[C@H](/C=C/C(=O)O)C[C@@H]1CCNC1=O)n1cccc(NC(=O)c2cc(C)on2)c1=O` [Compound 43, trans-(2′S,3′″″S,4S)-4-[2′-(3″-{[1′″-(5″″-Methylisoxazol-3″″-yl)methanoyl]amino}-2′″-oxo-2′″H-pyridin-1′″-yl)pent-4″-ynoylamino]-5-(2′″″-oxopyrrolidin-3′″″-yl)pent-2-enoic Acid], the kinact/KI in data set [1] was 382 M⁻¹ s⁻¹. In data set [2] (Rhinovirus B, HRV14, H1-HeLa), this compound came in with an EC50 of more than 10000 nM. In addition, in data set [3], the CC50 at 2 days was more than 10000 nM.

On to `CCOC(=O)/C=C/[C@H](C[C@@H]1CCNC1=O)NC(=O)[C@H](Cc1ccccc1)n1ccc2cc[nH]c2c1=O` [Compound 3], for which, in data set [1], the kinact/KI came to 2900 M⁻¹ s⁻¹. Moreover, the concentration for a half-maximal effect (EC50) in data set [2] (Rhinovirus B, HRV14, H1-HeLa) was 1270 nM. Besides, the CC50 at 2 days in data set [3] is more than 10000 nM.

In the case of `C#CC[C@@H](C(=O)N[C@H](/C=C/C(=O)OCC(C)(C)C)C[C@@H]1CCNC1=O)n1cccc(NC(=O)c2cc(C)on2)c1=O` (relative stereo) [Compound 32, trans-(2′S,3″″S,4S)-4-(2′-{3″-[(5′″-Methylisoxazole-3′″-carbonyl)amino]-2″-oxo-2″H-pyridin-1″-yl}-pent-4′-ynoylamino)-5-(2″″-oxopyrrolidin-3″″-yl)pent-2-enoic acid 2,2-Dimethylpropyl Ester], the “kobs/[I] (3C protease inhibition activity)” value in data set [1] is recorded as 127,500 M^−1s^−1. The EC50 came out at 126 nM in data set [2] (HRV-14, read-out: EC50); 179 nM in data set [5] (HRV-1A); 105 nM in data set [5] (HRV-2); 59 nM in data set [5] (HRV-3); 500 nM in data set [5] (HRV-9); 156 nM in data set [5] (HRV-10). The EC50 was 184 nM in data set [5] (HRV-16), 547 nM in data set [5] (HRV-25), 410 nM in data set [5] (HRV-39) and 33 nM in data set [5] (HRV-87). The CC50 in data set [4] (line of HRV-1A), in data set [4] (line of HRV-2), in data set [4] (line of HRV-3), in data set [4] (line of HRV-9), in data set [4] (line of HRV-10) and in data set [4] (line of HRV-14) was more than 10000 nM each time. In addition, the CC50 in data set [4] (line of HRV-16), in data set [4] (line of HRV-25), in data set [4] (line of HRV-39) and in data set [4] (line of HRV-87) was more than 10000 nM each time.

As for `CCC(C(=O)N[C@H](/C=C/C(=O)OCC(C)(C)C)C[C@@H]1CCNC1=O)n1cccc(NC(=O)c2cc(C)on2)c1=O` (relative stereo) [Compound 42, trans-(2′S,3′″″S,4S)-4-[2′-(3″-{[1′″-(5″″-Methylisoxazol-3″″-yl)methanoyl]amino}-2′″-oxo-2′″H-pyridin-1′″-yl)butanoylamino]-5-(2′″″-oxopyrrolidin-3′″″-yl)pent-2-enoic Acid 2,2-Dimethylpropyl Ester], the “kobs/[I] (3C protease inhibition activity)” value in data set [1] is recorded as 38,200 M^−1s^−1. The EC50 in data set [2] (HRV-14, read-out: EC50) turned out to be 168 nM; in data set [5] (HRV-2) it was 161 nM; in data set [5] (HRV-3), 152 nM; in data set [5] (HRV-9) it was 521 nM; in data set [5] (HRV-16), 402 nM; in data set [5] (HRV-25), 611 nM. Besides, the EC50 in data set [5] (HRV-39) worked out at 158 nM. The CC50 in data set [4] (line of HRV-2), in data set [4] (line of HRV-3), in data set [4] (line of HRV-9), in data set [4] (line of HRV-14), in data set [4] (line of HRV-16) and in data set [4] (line of HRV-25) was more than 10000 nM each time. Further, in data set [4] (line of HRV-39), the 50% cytotoxic concentration (CC50) was more than 10000 nM.

By EC50 is commonly meant the midpoint of the concentration-response curve. The term CC50 denotes the concentration at which the toxic effect on the cells reaches its halfway point. Read a low CC50 as harm at low concentration.

Source of the values: patent US6514997B2, “Antipicornaviral compounds and compositions, their pharmaceutical uses, and materials for their synthesis” (Agouron Pharmaceuticals, Inc., priority 1999, dated 2003).
